{"source": "patent US10918641B2", "about": "“Use of MTAP inhibitors for the treatment of lung disease” (The University of North Carolina at Chapel Hill, priority 2015, dated 2021)", "key": {"human MTAP": {"target": "T1, human MTAP (Homo sapiens, UniProt Q13126)", "T1 sequence (Q13126 1-283)": "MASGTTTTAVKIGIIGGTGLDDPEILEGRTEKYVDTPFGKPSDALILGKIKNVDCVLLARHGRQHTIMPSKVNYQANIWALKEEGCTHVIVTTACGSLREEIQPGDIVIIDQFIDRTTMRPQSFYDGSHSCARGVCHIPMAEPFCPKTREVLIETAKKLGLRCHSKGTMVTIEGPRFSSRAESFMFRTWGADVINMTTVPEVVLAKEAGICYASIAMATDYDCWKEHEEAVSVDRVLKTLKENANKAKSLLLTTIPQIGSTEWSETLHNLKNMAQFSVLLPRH", "test": "Inhibition of human MTAP by transition state analogue (Ki*)", "assay_type": "biochemical"}, "[1]": {"tested_on": "protein receptor and kinase panels", "test": "Protein receptor and kinase panels (off-target effects)", "assay_type": "binding"}, "[2]": {"test": "Acute and seven-day repeat-dose toxicity by gavage in CD-1 mice", "experimental": "In CD-1 mice, a single dose of MTDIA was administered by gavage to establish acute toxicity (300, 600 and 1000 mg/kg), or once daily for seven consecutive days (0, 600 and 1000 mg/kg/day) to determine repeat-dose toxicity. Mice were monitored for abnormalities, survival rates, histopathological changes (heart, lung, liver, kidney, spleen, small intestine and stomach were evaluated histopathologically by a board certified pathologist), clinical chemistry and complete blood count (CBC) analysis."}, "[3]": {"test": "Toxicity in in vitro (2D and 3D culture) and in vivo studies to date", "details": "all in vitro (2D and 3D culture) and in vivo studies to date"}, "Scnn1b-Tg mice [4]": {"tested_on": "Scnn1b-Tg mice", "test": "15 mg/kg oral gavage once daily for three days in Scnn1b-Tg mice", "assay_type": "in vivo, mouse", "experimental": "Therefore, we repeated the above study in Scnn1b-Tg mice using 15 mg/kg MTDIA by oral gavage once daily for three days. With the longer treatment, we observed increases in serum (FIG. 8A) and BALF (FIG. 8B) MTA concentrations in treated mice relative to vehicle treated animals (n=13 and 11, respectively), similar to the changes seen with the single dose experiments.\nSimilar differences were observed when BALF inflammatory cells were analyzed as cell differentials rather than cell counts. These findings provide compelling evidence that MTDIA can act as an anti-inflammatory drug in a chronic airways disease model."}, "[5]": {"test": "Stability of MTDIA in drinking water (MS method)", "assay_type": "physicochemical", "details": "three days, room temperature"}, "MTA metabolism at MTAP [6]": {"tested_on": "MTA metabolism at MTAP", "test": "MTDIA in drinking water of WT mice, serum and BALF MTA", "assay_type": "in vivo", "experimental": "The effect of a range of MTDIA concentrations in drinking water on serum and BALF MTA concentrations in WT mice is explored using protocols similar to those described above, except that MTDIA is delivered in drinking water rather than oral gavage. In preliminary experiments, we calculated that 75 μg/mL of MTDIA in drinking water would deliver a dose of 15 mg/kg per day that we utilized in our single dose experiments (based on estimates of a 25 g mouse drinking […] water per day), and we examined WT mice treated with this dose as well as half of this dose (37.5 μg/mL) relative to mice drinking untreated water. […] Once this dose is established, this dose is tested over three days in our Scnn1b-Tg and CF/Scnn1b-Tg mice to ensure that we observe similar effects in these models."}, "MTAP": {"target": "MTAP (Mus musculus, UniProt Q9CQ65)", "sequence (Q9CQ65 whole entry)": "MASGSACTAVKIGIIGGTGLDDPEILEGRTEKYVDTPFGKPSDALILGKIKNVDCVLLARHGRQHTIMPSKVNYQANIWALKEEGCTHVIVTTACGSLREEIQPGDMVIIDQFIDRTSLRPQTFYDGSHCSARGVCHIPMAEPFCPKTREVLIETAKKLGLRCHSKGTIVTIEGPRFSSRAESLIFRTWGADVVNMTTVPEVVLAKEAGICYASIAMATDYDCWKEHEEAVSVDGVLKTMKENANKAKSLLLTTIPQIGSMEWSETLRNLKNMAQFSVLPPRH"}, "MTA metabolism at MTAP [7]": {"tested_on": "MTA metabolism at MTAP"}, "MTA metabolism at MTAP [8]": {"tested_on": "MTA metabolism at MTAP", "remark": "listed apart in the source", "method": "A) Serum MTA concentrations after single oral dose of various concentrations of MTDIA (range 0.6-150 mg/kg, numbers on graph represent dose in mg/kg MTDIA) as well as a 10 mg/kg dose IV."}, "physchem": {"test": "physchem", "details": "PBS, aqueous buffer"}, "[9]": {"test": "Metabolic stability in human hepatocytes and microsomes"}, "Scnn1b-Tg mice [10]": {"tested_on": "Scnn1b-Tg mice", "test": "Single 15 mg/kg oral gavage dose in WT and Scnn1b-Tg mice"}, "[11]": {"test": "MTDIA plasma pharmacokinetics after oral or i.p. dose in CD-1 mice", "details": "in words"}, "[12]": {"details": "15 mg/kg once daily, three days"}}, "note": "pKi: −log10 of the molar value. Entries after “also recorded” stand apart in the source; their conditions may differ.", "data": [{"smiles": "CSC[C@H]1CN(Cc2c[nH]c3c(N)ncnc23)C[C@@H]1O", "note": "[MTDIA, (3R,4S)-1-[(9-deazaadenin-9-yl)methyl]-3-hydroxy-4-(methylthiomethyl)pyrrolidine]", "values": [{"measurement": "pKi", "setting": "human MTAP", "value": 10.07}, {"measurement": "Affinity for MTAP", "setting": "human MTAP; in words", "value": "picomolar affinity"}, {"measurement": "Off-target effects in protein receptor and kinase panels", "setting": "[1]", "value": "minimal off-target effects"}, {"measurement": "LOAEL (Lowest-Observed-Adverse-Effect level)", "setting": "[2]; CD-1 mice, gavage", "value": 600, "unit": "mg/kg/day"}, {"measurement": "Histopathological findings", "setting": "[2]; mouse, in vivo", "value": "No histopathological findings were detected"}, {"measurement": "Toxicity observed", "setting": "[3]", "value": "No significant toxicity"}, {"measurement": "BALF MTA concentrations vs. vehicle", "setting": "Scnn1b-Tg mice [4]; [12]", "value": "increases"}, {"measurement": "Free concentrations of spermine and spermidine in serum or BALF", "setting": "Scnn1b-Tg mice [4]; [12]", "value": "did not observe large changes; also recorded: minimal changes"}, {"measurement": "Serum MTA concentrations vs. vehicle", "setting": "Scnn1b-Tg mice [4]; [12]", "value": "increases; also recorded: increased serum MTA concentrations"}, {"measurement": "Bronchus-associated lymphoid tissue (BALT), lung histology", "setting": "Scnn1b-Tg mice [4]; three days of MTDIA treatment", "value": "meaningfully reduced; also recorded: greatly reduced"}, {"measurement": "Enlarged activated macrophage phenotype (BALF cytospins)", "setting": "Scnn1b-Tg mice [4]; three days of MTDIA treatment", "value": "appears to be reduced; also recorded: resolve to a more WT appearance"}, {"measurement": "BALF macrophage cell counts", "setting": "Scnn1b-Tg mice [4]; three days oral MTDIA", "value": "corresponding increase"}, {"measurement": "BALF eosinophil cell count", "setting": "Scnn1b-Tg mice [4]; three days oral MTDIA, vehicle 14.2+13.5, p<0.001", "value": "2.2+3.2 ×10^3 cells/ml"}, {"measurement": "BALF neutrophil cell count", "setting": "Scnn1b-Tg mice [4]; three days oral MTDIA, vehicle 32.0+16.9, p<0.001", "value": "11.5+8.2 ×10^3 cells/ml"}, {"measurement": "Stability in drinking water", "setting": "[5]", "value": "stable"}, {"measurement": "Serum MTA concentrations vs. control", "setting": "MTA metabolism at MTAP [6]; 37.5 μg/mL in drinking water", "value": "more than two orders of magnitude higher than control; also recorded: orders of magnitude increases"}, {"measurement": "Serum MTA concentrations vs. control", "setting": "MTA metabolism at MTAP [6]; 75 μg/mL in drinking water", "value": "more than two orders of magnitude higher than control; also recorded: orders of magnitude increases"}, {"measurement": "BALF MTA vs. control", "setting": "MTA metabolism at MTAP [6]; 37.5 or 75 μg/mL in drinking water", "value": "less dramatic increases; also recorded: increased BALF MTA concentrations"}, {"measurement": "Duration of inhibition of MTAP activity in vivo", "setting": "MTAP; an oral or i.p. dose", "value": "> 24", "unit": "h"}, {"measurement": "Time for MTAP catalytic activity in mouse serum to return to normal", "setting": "MTAP; single oral dose 15 mg/kg", "value": "≤ 36", "unit": "h"}, {"measurement": "Time for which catalytic activity of MTAP in mouse serum is completely inhibited", "setting": "MTAP; single oral dose 15 mg/kg", "value": 24, "unit": "h"}, {"measurement": "Urinary MTA", "setting": "MTA metabolism at MTAP [7]; 15 mg/kg, mice", "value": "approximately 30 μM"}, {"measurement": "Increase of plasma MTA levels", "setting": "MTA metabolism at MTAP [7]; 15 mg/kg, mice, after 30 min", "value": "> 100", "unit": "fold"}, {"measurement": "Decrease in polyamine concentrations", "setting": "MTA metabolism at MTAP [7]; an oral or i.p. dose", "value": "~2", "unit": "fold"}, {"measurement": "MTA accumulation in plasma over baseline levels", "setting": "MTA metabolism at MTAP [7]; an oral or i.p. dose", "value": "> 100", "unit": "fold"}, {"measurement": "Oral dose yielding maximal response in serum MTA concentrations", "setting": "MTA metabolism at MTAP [8]; previous experiments, as stated in Example 7", "value": 15, "unit": "mg/kg"}, {"measurement": "Oral dose with maximum effect on serum MTA concentrations", "setting": "MTA metabolism at MTAP [8]; single oral dose range 0.6-150 mg/kg (FIG. 7A legend)", "value": 30, "unit": "mg/kg"}, {"measurement": "solubility", "setting": "physchem", "value": 156, "unit": "mM"}, {"measurement": "Time metabolically stable", "setting": "[9]; in vitro, human hepatocytes and microsomes", "value": "over 4 hr"}, {"measurement": "Metabolic stability in microsomes and hepatocytes", "setting": "[9]; in words", "value": "metabolically stable"}, {"measurement": "BALF inflammatory markers", "setting": "Scnn1b-Tg mice [10]; after a single dose", "value": "did not observe any changes"}, {"measurement": "Serum MTA concentrations", "setting": "Scnn1b-Tg mice [10]; single 15 mg/kg oral gavage, 24 hours, WT and Scnn1b-Tg mice, 15 mg/kg", "value": "increase; also recorded: increases serum MTA"}, {"measurement": "Oral availability", "setting": "[11]", "value": "orally available"}]}]}
